Like-named read-outs stand apart in the source and are kept apart here.

In paper PMC10004417, “Screening of Potential α-Glucosidase Inhibitors from the Roots and Rhizomes of Panax Ginseng by Affinity Ultrafiltration Screening Coupled with UPLC-ESI-Orbitrap-MS Method” (Molecules, 2023) one finds inhibition data, which are given here for three compounds.

Assay in all cases: pNPG enzyme inhibition assay, % inhibition at […]; also affinity ultrafiltration LC-MS (PAR […])
Format in all cases: biochemical
Common to all, as to settings: read-out: Inhibitory (%)

The target in experiment [1] is T1, α-Glucosidase (Saccharomyces cerevisiae, UniProt P53341).
T1 construct: gene MAL12
T1 sequence (P53341 whole entry): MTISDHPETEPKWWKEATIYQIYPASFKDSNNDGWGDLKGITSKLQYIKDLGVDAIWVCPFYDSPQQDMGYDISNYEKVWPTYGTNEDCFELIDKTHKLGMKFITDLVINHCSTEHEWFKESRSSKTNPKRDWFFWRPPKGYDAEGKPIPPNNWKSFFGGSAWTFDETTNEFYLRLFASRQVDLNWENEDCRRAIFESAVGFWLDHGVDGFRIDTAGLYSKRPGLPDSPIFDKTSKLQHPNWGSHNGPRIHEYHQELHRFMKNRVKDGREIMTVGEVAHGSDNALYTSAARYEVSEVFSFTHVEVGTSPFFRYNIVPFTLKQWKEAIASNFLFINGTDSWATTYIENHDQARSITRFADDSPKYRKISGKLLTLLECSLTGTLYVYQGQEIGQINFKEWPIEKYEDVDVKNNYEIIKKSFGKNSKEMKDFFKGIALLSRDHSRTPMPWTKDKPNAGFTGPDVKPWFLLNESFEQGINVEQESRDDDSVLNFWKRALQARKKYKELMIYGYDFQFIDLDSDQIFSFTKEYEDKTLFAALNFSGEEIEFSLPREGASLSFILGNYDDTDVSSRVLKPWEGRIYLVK

The target of experiment [2] is T1, α-Glucosidase. The source holds these as a separate data set.
Experiment [3] has as its target T1, α-Glucosidase. The source holds these as a separate data set.

On to `C=C(CCC=C(C)C)[C@H]1CC[C@]2(C)C1[C@H](O)CC1[C@@]3(C)CC[C@H](O)C(C)(C)C3[C@@H](OC3O[C@H](CO)[C@@H](O)[C@H](O)[C@H]3OC3O[C@@H](C)[C@H](O)[C@@H](O)[C@H]3O)C[C@]12C` (stereo partly drawn) [R3, ginsenoside Rg6], for which, in experiment [1], the inhibition at 40000 µM turned out to be 27.4%.
On to `CC1(C)CC[C@]2(C(=O)O[C@@H]3O[C@H](CO)[C@@H](O)[C@H](O)[C@H]3O)CC[C@]3(C)C(=CC[C@@H]4[C@@]5(C)CC[C@H](O[C@@H]6O[C@H](C(=O)O)[C@@H](O)[C@H](O)[C@H]6O[C@@H]6O[C@H](CO)[C@@H](O)[C@H](O)[C@H]6O)C(C)(C)[C@@H]5CC[C@]43C)[C@@H]2C1` [R8, ginsenoside Ro], for which the inhibition at 40000 µM in experiment [2] was 20.2%.
Regarding `CC(C)=CCC[C@](C)(OC1O[C@H](COC2O[C@@H](CO)[C@H](O)[C@H]2OC2OC[C@@H](O)[C@H](O)[C@H]2O)[C@@H](O)[C@H](O)[C@H]1O)C1CC[C@]2(C)C1[C@H](O)CC1[C@@]3(C)CC[C@H](OC4O[C@H](CO)[C@@H](O)[C@H](O)[C@H]4OC4O[C@H](CO)[C@@H](O)[C@H](O)[C@H]4O)C(C)(C)C3CC[C@]12C` (stereo partly drawn) [R11, ginsenoside Ra2], in experiment [3], the inhibition at 40000 µM is 29.5%.
